Laboratory results: the METLIN SMRT retention time set (Domingo-Almenara et al. 2019)

experiment: gradient 5% acetonitrile 3 min, to 50% in 2 min, to 85% in 15 min, held 3 min, 100 µL/min; conditions: column: Zorbax Extend-C18 2.1 x 50 mm; eluents: water / acetonitrile, 0.1% formic acid
How it was run: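 Standards, all pure, were combined into mixtures of ~100 molecules and run at 100 μL/min on a Zorbax Extend-C18 column (2.1 × 50 mm, 1.8 μm) with water and acetonitrile, each containing 0.1% formic acid. A coupled quadrupole time-of-flight mass spectrometer operated in positive and negative ionization mode. Retention time values come from computationally picked adduct peaks, each inspected manually.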

| SMILES | RP-LC retention time [s] |
| --- | --- |
| Cc1ccc(-c2nnc(N3CCC(C(=O)N4CCN(CC(C)C)CC4)CC3)o2)cc1 | 639 |
| COc1ccc2c(c1)C1(CCN(C(=O)Cc3cccc(F)c3)C1)C(=O)N2C (centres undefined) | 788 |
| CCCS(=O)(=O)N1CCC2(CC1)CN(c1ccccc1)C2=O | 812 |
| COc1ccc(CCNC(=O)C2CCCN(c3ncnc4c3nc3n4CCCCC3)C2)c(OC)c1 (centres undefined) | 778 |
| COCCn1c(CCCC(=O)N2CCN(c3ccccn3)CC2)nc2cccnc21 | 562 |
| Cc1noc(CNC(=O)CN(C)c2nc3c(C)ccc(C)c3s2)n1 | 772 |
| Cn1c(=O)n([C@H]2CCN(C(=O)C3CC3)C2)c2ncccc21 | 639 |
| CCS(=O)(=O)Nc1ccc2nc(N3CCN(c4cc(C)ccc4C)CC3)cc(C(=O)O)c2c1 | 607 |
| Cc1ccc(NS(=O)(=O)c2cc3n(c2)CCCN(C)C3=O)cc1C | 720 |
| Cc1cc(S(=O)(=O)N2CCN(C3CCN(C)C3=O)CC2)ccc1Cl (centres undefined) | 595 |
| O=C(c1cccc2c1CCN2C(=O)c1ccc(F)cc1)N1CCOCC1 | 704 |
| O=C(Cn1cnc2nc3c(cc2c1=O)CCCC3)Nc1ccc(Cl)cc1F | 778 |
| CNC(=O)CCC(=O)N1c2ccccc2NC2=C(C(=O)CC(C)(C)C2)C1c1ccccc1 (centres undefined) | 686 |
| CCCCN(C(=O)c1ccc(C)cc1)C1(C(=O)NCc2ccccc2)CCN(C(C)=O)CC1 | 901 |
| Cc1ccc(C)c2c(=O)c3c([nH]c12)CCN(CC(=O)Nc1ccc(F)cc1)C3 | 634 |
| CCCNC(=O)C1CCCN(c2ccc(SCC(=O)Nc3c(C)cccc3Cl)nn2)C1 (centres undefined) | 655 |
| Cn1c(N2CCN(C(=O)Cc3ccc(Cl)cc3)CC2)cc(=O)n(C)c1=O | 677 |
| CC(C)c1nnc2n1C(C(=O)NCC(F)F)CCCC2 (centres undefined) | 580 |
| Cc1scc(CN2CCN(c3ccccn3)CC2)c1C | 578 |

| SMILES | RP-LC retention time [s] |
| --- | --- |
| CCc1c(C(=O)O)nnn1-c1ccc(C(F)(F)F)cc1 | 800 |
| CCOc1cccc(C2CC(=O)NC3=C2C(=O)C(C(=O)OC)C(C)C3)c1 (centres undefined) | 750 |
| COc1cc(C(=O)N2CCN(c3cc(N4CCCC4)nc(C)n3)CC2)cc(OC)c1OC | 619 |
| Cc1csc(-c2csc(S(=O)(=O)N3CCCCCC3)c2)n1 | 1090 |
| Cc1ccc(NC(=O)N2CCCC(C)(C(=O)NCc3ccccc3C)C2)c(C)c1 (centres undefined) | 1000 |
| Cc1ccccc1NC(=O)CN1C(=O)NC2(CCCCC2)C1=O | 730 |
| O=C(NCC1CCCCC1)c1sc2ncccc2c1-n1cccc1 | 1190 |
| Nc1ncnc2c1ncn2C1CCCC1 | 595 |
| Clc1ccc(-c2ccc(CNCC3CCNCC3)o2)c(Cl)c1 | 611 |
| Cc1cc(N2CCCC2)nc(N2CCN(S(=O)(=O)c3ccc(Br)cc3)CC2)n1 | 820 |
| Cc1ccc(CNC(=O)C2CCCN(S(=O)(=O)c3c[nH]c(C(=O)N4CCCCCC4)c3)C2)cc1 (centres undefined) | 883 |
| Cn1c(=O)c(N2CCC(NC(=O)Nc3ccccc3Cl)CC2)nc2ccccc21 | 904 |
| CCCNC(=O)C1CCCN(c2ccc(SCC(=O)Nc3ccc(CC)cc3)nn2)C1 (centres undefined) | 656 |
| Cc1ccc([N+](=O)[O-])cc1NC(=O)c1cccc([N+](=O)[O-])c1O | 913 |
| O=C(NCCc1ccc(Cl)cc1)C(=O)c1ccc[nH]1 | 878 |
| COC(=O)c1cnc2nc(C)ccc2c1Nc1ccc(OC)c(OC)c1 | 630 |
| CCCN1CCN(C(=O)CN2C(=O)C3CCCCN3c3ccc(C(=O)N4CCCCC4)cc32)CC1 (centres undefined) | 652 |
| COCCN(CCNC(=O)C1Cn2cccc2C(=O)N1C)Cc1ccco1 (centres undefined) | 569 |

More lines, now with the values ahead:

| RP-LC retention time [s] | SMILES |
| --- | --- |
| 634 | CCc1ccc(-n2c(CN3CCN(C(=O)NCCCOC)CC3)nc3cccnc32)cc1 |
| 780 | COc1cccc(NC(=O)N2CCC3(CC2)NC(=O)c2ccc(Cl)cc2N3C)c1 |
| 630 | Cc1ccc(C)c(C(=O)NCc2ccc(-n3ccnc3)cc2)c1 |
| 1270 | CCOc1ccc(NC(=O)c2c(NC(=O)c3ccncc3)sc3c2CCC3)cc1 |
| 1030 | O=C(Nc1cccc(Cl)c1)N1CCCC1c1nc(-c2ccc(F)cc2F)no1 (centres undefined) |
| 676 | COc1ccc(C(=O)N2CCC3(CC2)NC(=O)c2ccccc2N3C)cc1OC |
| 674 | O=C(CCc1c(-c2ccccc2)nc2ccccn12)Nc1ccc(F)cc1 |
| 1010 | COc1ccc(-c2cc(-c3nc4c5sc6nc(C)cc(C)c6c5ncn4n3)[nH]n2)cc1 |
| 929 | CC(C)Cc1ccc(S(=O)(=O)N2CCC(c3nc4cccnc4n3C)C2)cc1 (centres undefined) |
| 747 | O=C(c1ccco1)N1CCN(c2nc(-c3ccc(Cl)cc3)nc3ccccc23)CC1 |
| 891 | CCOC(=O)c1ccccc1NC(=O)N(Cc1cc(=O)[nH]c2ccccc12)C(C)C |
| 1200 | CCN(CC)S(=O)(=O)c1ccc(C)c(-c2nnc(-c3ccc(Cl)cc3)o2)c1 |
| 1020 | COc1cc(OC)c(NC(=O)N2CCc3nc(-c4ccc(F)cc4)ncc3C2)cc1Cl |
| 1000 | Cc1occc1-c1nnc2sc(COc3ccc(Cl)cc3)nn12 |
| 995 | Cc1cccc(Nc2nc(C(=O)NCCC3=CCCCC3)nc3ccccc23)c1 |
| 1060 | COc1cccc(Cn2cccc2-c2nc(-c3ccncc3)no2)c1 |
| 727 | CCN1C(=O)Cc2ccccc2C1C(=O)NCc1ccc2c(c1)OCO2 (centres undefined) |
| 703 | COc1ccc(-c2cc(N3CCN(C(=O)c4ccc5[nH]ccc5c4)CC3)n[nH]2)cc1 |
| 624 | CC(C)n1cnc2cc(CNC(=O)c3ccc4c(c3)OCO4)ccc21 |
| 976 | Cc1cc(C)cc(-n2ccn(Cc3nc(-c4ccc(Cl)c(F)c4)no3)c(=O)c2=O)c1 |
| 1050 | Cc1cc(C)c(NC(=O)Cn2cnc3c(sc4nc(-c5ccccc5)ccc43)c2=O)c(C)c1 |
| 607 | CC(C)n1cnc2cc(CNC(=O)Cc3cccc(F)c3)ccc21 |
| 636 | O=C(Cc1csc(Nc2cccc(C(F)(F)F)c2)n1)NCc1ccco1 |
| 512 | O=C(O)c1ccc(Cn2cnc3ccccc32)o1 |
| 715 | COc1ccccc1-c1nc2cnccn2c1NCCC(=O)NC1CCCCCC1 |
| 581 | c1cncc(-c2nc(-c3ccc4c(c3)ncn4CCN3CCCCC3)no2)c1 |

| RP-LC retention time [s] | SMILES |
| --- | --- |
| 778 | Cc1cccc(-c2ncccc2CNS(=O)(=O)c2ccc(Cl)cc2)c1 |
| 775 | O=C(Nc1ccc(Br)cc1)C1CCCN(c2ccnc(-c3ccc(F)cc3)n2)C1 (centres undefined) |
| 751 | COc1ccccc1N1CCN(CCCCN2C(=O)c3ccccc3C2=O)CC1 |
| 1250 | Cc1ccc(-c2nc(NC(=O)CCCOc3ccc(Cl)cc3)sc2C)cc1 |
| 920 | O=C(Cn1nc2c3cc(-c4ccc(F)cc4)nn3ccn2c1=O)N1CCN(c2ccc(F)cc2)CC1 |
| 965 | Cc1cccc(N2CCN(Cc3nc(-c4ccc(N5CCCCC5)nc4)no3)CC2)c1 |
| 865 | COc1ccc(NC(=O)Cn2c(C)cc(-c3nnc(-c4ccco4)o3)c2C)cc1F |
| 578 | O=C(Cc1c[nH]c2ccccc12)N1CCN(C(=O)c2cc(-c3ccncc3)n[nH]2)CC1 |
| 982 | O=C(NCC1CCCO1)c1nc(-c2ccc(N3CCCC3)cc2)no1 (centres undefined) |
| 1130 | CCCCOc1ccc(CNC(=O)CSc2nccnc2Oc2ccccc2)cc1 |
| 777 | Cc1cccc(CN2C[C@@H]3C(=O)N(CCc4ccccc4)C(=O)[C@@H]3C2)c1 |
| 715 | CCCN1CCN(C(=O)c2cnn(-c3cc(-c4nc(C(C)(C)C)no4)ccn3)c2C)CC1 |
| 842 | N#Cc1cn(CC(=O)NCc2ccc3c(c2)OCCCO3)c2ccccc12 |
| 602 | COCCNC(=O)c1nc(-c2ccnc(N3CCCCCC3)c2)no1 |
| 1270 | COc1cccc(C2Cn3nnc(-c4nc(-c5cccc(C(F)(F)F)c5)no4)c3CO2)c1 (centres undefined) |
| 562 | Clc1ccc(-c2nc(N3CCN(C4CCCCC4)CC3)c3ccccc3n2)cc1 |
| 796 | CCC(C)NC(=O)C1CCN(Cc2cc3ccccc3n2Cc2cccc(Cl)c2)CC1 (centres undefined) |
| 869 | Cc1ccccc1NC(=O)N(C)CCc1noc(COc2ccccc2)n1 |
| 693 | COc1ccccc1N1CCN(C(=O)C2CC(=O)N(c3ccc4oc(C)nc4c3)C2)CC1 (centres undefined) |
| 846 | CSc1cccc(NC(=O)Cn2c(=O)c(CCC(=O)NCC(C)C)nc3ccccc32)c1 |
| 789 | COc1ccccc1C(=O)NC1CCN(c2ccccc2)C1=O (centres undefined) |
| 681 | COc1ccccc1CNC(=O)c1cn2cc(C)ccc2n1 |
| 805 | O=C(NCc1csc(-c2cccs2)n1)C1CCN(C(=O)CCc2ccccc2)CC1 |
| 675 | O=C(Nc1cccc(F)c1)[C@@H]1OCCN(C2CC2)[C@H]1c1ccccc1 |
| 770 | CCCn1cc(CCNC(=O)Cc2ccccc2Cl)c2cccnc21 |
| 806 | CC(C)(C)c1ccc(C(=O)NCc2cnn3ccccc23)cc1 |
